The target of this assay is T1, NLRP3 inflammasome (Homo sapiens, UniProt Q96P20).
T1 construct: endogenous in cells; host or cells: THP-1 (human monocyte-derived), PMA-differentiated, Nigericin-stimulated
T1 sequence (Q96P20 whole entry): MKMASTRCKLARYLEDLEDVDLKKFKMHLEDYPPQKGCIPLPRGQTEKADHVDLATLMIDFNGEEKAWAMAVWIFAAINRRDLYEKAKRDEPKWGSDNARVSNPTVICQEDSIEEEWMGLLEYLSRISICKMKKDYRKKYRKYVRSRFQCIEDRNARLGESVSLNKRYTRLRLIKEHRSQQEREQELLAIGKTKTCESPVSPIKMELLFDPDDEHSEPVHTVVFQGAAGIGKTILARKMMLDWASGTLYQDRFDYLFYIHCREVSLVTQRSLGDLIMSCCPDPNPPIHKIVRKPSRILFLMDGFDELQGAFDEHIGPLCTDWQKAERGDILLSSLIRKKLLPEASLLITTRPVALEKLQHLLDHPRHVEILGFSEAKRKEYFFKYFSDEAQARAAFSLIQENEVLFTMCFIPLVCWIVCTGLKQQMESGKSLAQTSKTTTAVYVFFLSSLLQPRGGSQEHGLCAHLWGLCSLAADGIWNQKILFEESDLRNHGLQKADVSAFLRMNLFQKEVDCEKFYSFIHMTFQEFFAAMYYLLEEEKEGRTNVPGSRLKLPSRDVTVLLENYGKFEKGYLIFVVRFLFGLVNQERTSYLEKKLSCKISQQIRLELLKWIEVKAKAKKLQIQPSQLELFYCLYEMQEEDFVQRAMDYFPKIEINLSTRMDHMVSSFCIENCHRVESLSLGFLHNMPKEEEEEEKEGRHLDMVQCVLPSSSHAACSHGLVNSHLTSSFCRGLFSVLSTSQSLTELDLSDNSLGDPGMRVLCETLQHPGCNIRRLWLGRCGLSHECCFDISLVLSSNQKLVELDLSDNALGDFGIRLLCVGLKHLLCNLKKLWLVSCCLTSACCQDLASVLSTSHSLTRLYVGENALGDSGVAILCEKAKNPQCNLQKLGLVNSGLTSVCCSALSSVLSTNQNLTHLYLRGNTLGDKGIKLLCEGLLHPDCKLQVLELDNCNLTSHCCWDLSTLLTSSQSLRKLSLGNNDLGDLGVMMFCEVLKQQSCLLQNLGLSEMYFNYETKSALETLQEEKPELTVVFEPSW
As to the kind of experiment: In vitro IL-1β production test (PMA-differentiated THP-1 cells, Nigericin stimulation, AlphaLISA). It counts as cell-based. Conditions: inhibition of IL-1β production; THP-1 cells differentiated with 200 nM PMA; 0.015 mM Nigericin; 2 hours. As to the method: Human monocyte-derived THP-1 cells were cultured for one day in 10% bovine serum-containing RPMI-1640 medium (Thermo #A10491-01) supplemented with 200 nM phorbol 12-myristate 13-acetate (PMA, Sigma #P8139) to induce differentiation.
NLRP3 inflammasome was induced by replacing the culture medium with bovine serum-free RPMI-1640 medium supplemented with 0.015 mM Nigericin (Sigma #SML1779) and the test compound of known concentrations.
After 2 hours, the culture medium supernatant was collected and the IL-1β protein concentration was measured using the AlphaLISA (registered trademark) assay (PerkinElmer #AL220C).
The IL-1β concentration without the addition of the test compound and with Nigericin stimulation was set as 0% inhibitory activity, and the IL-1β concentration without Nigericin stimulation was set as 100% inhibitory activity, and the inhibition rate (% inhibition) of the test compound at each added concentration was calculated.
The % inhibition value was subjected to sigmoid fitting using a logistic regression model to calculate the 50% inhibitory concentration (IC50 value).
`Cc1c(F)c(C(F)(F)F)cc(O)c1-c1cc2c(C)cn([C@H]3C[C@@](C)(O)C3)c2nn1` [Example 50, 4-fluoro-2-{7-[(1s,3s)-3-hydroxy-3-methylcyclobutyl]-5-methyl-7H-pyrrolo[2,3-c]pyridazin-3-yl}-3-methyl-5-(trifluoromethyl)phenol]: half-maximal inhibition (IC50) required 236 nM. With `Cc1cn([C@H]2C[C@@](C)(O)C2)c2nnc(-c3c(O)cc(Cl)cc3Cl)cc12` [Example 63, 3,5-dichloro-2-{7-[(1s,3s)-3-hydroxy-3-methylcyclobutyl]-5-methyl-7H-pyrrolo[2,3-c]pyridazin-3-yl}phenol] the figure was 42.3 nM. Under `Cc1c(-c2ccc(C(F)(F)F)cc2O)nnc2c1CCN2[C@H]1C[C@@](C)(O)C1` [Example 39, 2-{7-[(1s,3s)-3-hydroxy-3-methylcyclobutyl]-4-methyl-6,7-dihydro-5H-pyrrolo[2,3-c]pyridazin-3-yl}-5-(trifluoromethyl)phenol] stands 401 nM; under `Cc1cc(C(F)(F)F)cc(O)c1-c1cc2c(nn1)N([C@@H]1CCCN(C)C1)C[C@H]2C` (single isomer, unassigned) [Example 33, 3-methyl-2-{(5S or 5R)-5-methyl-7-[(3R)-1-methylpiperidin-3-yl]-6,7-dihydro-5H-pyrrolo[2,3-c]pyridazin-3-yl}-5-(trifluoromethyl)phenol], 10 nM; under `Cc1cc(C(F)(F)F)cc(O)c1-c1cc2scc(C3CCCN(C)C3)c2nn1` (racemic) [Example 95, 3-methyl-2-[7-(1-methylpiperidin-3-yl)thieno[3,2-c]pyridazin-3-yl]-5-(trifluoromethyl)phenol], 19.7 nM. Under `CCN1CC2(O)CC(n3cc(C)c4cc(-c5c(C)cc(C(F)(F)F)cc5O)nnc43)(C1)C2` [Example 75, 3-ethyl-5-{3-[2-hydroxy-6-methyl-4-(trifluoromethyl)phenyl]-5-methyl-7H-pyrrolo[2,3-c]pyridazin-7-yl}-3-azabicyclo[3.1.1]heptan-1-ol] stands 98.4 nM.

Consider `Cc1cn([C@H]2C[C@@](C)(O)C2)c2nnc(-c3c(O)cc(C(F)(F)F)cc3C#N)cc12` [Example 53, 3-hydroxy-2-{7-[(1s,3s)-3-hydroxy-3-methylcyclobutyl]-5-methyl-7H-pyrrolo[2,3-c]pyridazin-3-yl}-5-(trifluoromethyl)benzonitrile], for which it took 275 nM to reach half-maximal inhibition (IC50). `CCN1CCC[C@@H](N2CCc3cc(-c4c(C)cc(OC(F)(F)F)cc4O)nnc32)C1` [Example 23, 2-{7-[(3R)-1-ethylpiperidin-3-yl]-6,7-dihydro-5H-pyrrolo[2,3-c]pyridazin-3-yl}-3-methyl-5-(trifluoromethoxy) phenol] registered a half-inhibitory concentration (IC50) of 11.8 nM. With `CCN1CCC[C@@H](n2cc(C#N)c3cc(-c4c(C)cc(OC(F)F)cc4O)nnc32)C1` [Example 67, 3-[4-(difluoromethoxy)-2-hydroxy-6-methylphenyl]-7-[(3R)-1-ethylpiperidin-3-yl]-7H-pyrrolo[2,3-c]pyridazine-5-carbonitrile] the figure was 4.93 nM. With `Cc1cc(C(F)(F)F)cc(O)c1-c1cc2c3ccccc3n([C@H]3C[C@@](C)(O)C3)c2nn1` [Example 81, 2-{9-[(1s,3s)-3-hydroxy-3-methylcyclobutyl]-9H-pyridazino[3,4-b]indol-3-yl}-3-methyl-5-(trifluoromethyl)phenol] the figure was 54.7 nM; with `Cc1cc(C(F)(F)F)c(F)c(O)c1-c1cc2c(C)cn([C@H]3C[C@@](C)(O)C3)c2nn1` [Example 48, 2-fluoro-6-{7-[(1s,3s)-3-hydroxy-3-methylcyclobutyl]-5-methyl-7H-pyrrolo[2,3-c]pyridazin-3-yl}-5-methyl-3-(trifluoromethyl)phenol], 101 nM.

Consider `Cc1cc2c(c(O)c1-c1cc3c(C)cn([C@H]4C[C@@](C)(O)C4)c3nn1)CCC2` [Example 43, 5-{7-[(1s,3s)-3-hydroxy-3-methylcyclobutyl]-5-methyl-7H-pyrrolo[2,3-c]pyridazin-3-yl}-6-methyl-2,3-dihydro-1H-inden-4-ol], for which half-maximal inhibition (IC50) was put at 22.1 nM. `Cc1cc(C(F)(F)F)cc(O)c1-c1cc2c(nn1)c(C1CCCN(C)C1)cn2C` (racemic) [Example 94, 3-methyl-2-[5-methyl-7-(1-methylpiperidin-3-yl)-5H-pyrrolo[3,2-c]pyridazin-3-yl]-5-(trifluoromethyl)phenol]: half-maximal inhibition (IC50) required 79.6 nM. With `Cc1cc(C(F)(F)F)cc(O)c1-c1cc2ccn(-c3ncc(F)cn3)c2nn1` [Example 84, 2-[7-(5-fluoropyrimidin-2-yl)-7H-pyrrolo[2,3-c]pyridazin-3-yl]-3-methyl-5-(trifluoromethyl)phenol] the figure was 12.8 nM; with `Cc1cc(OC(F)F)cc(O)c1-c1cc2c(OC(F)F)cn([C@H]3C[C@@](C)(O)C3)c2nn1` [Example 78, 5-(difluoromethoxy)-2-[5-(difluoromethoxy)-7-[(1s,3s)-3-hydroxy-3-methylcyclobutyl]-7H-pyrrolo[2,3-c]pyridazin-3-yl]-3-methylphenol], 35 nM; with `Cc1c(-c2ccc3c(c2O)CCC3)nnc2c1ccn2[C@H]1C[C@@](C)(O)C1` [Example 41, 5-{7-[(1s,3s)-3-hydroxy-3-methylcyclobutyl]-4-methyl-7H-pyrrolo[2,3-c]pyridazin-3-yl}-2,3-dihydro-1H-inden-4-ol], 77.5 nM. Take `CCN1CCC[C@@H](n2cc(C)c3cc(-c4c(C)cc(OC(F)F)cc4O)nnc32)C1` [Example 71, 5-(difluoromethoxy)-2-{7-[(3R)-1-ethylpiperidin-3-yl]-5-methyl-7H-pyrrolo[2,3-c]pyridazin-3-yl}-3-methylphenol]: the IC50 amounted to 8.18 nM. Under `Cc1cc(OC(F)F)cc(O)c1-c1cc2c(C#N)cn([C@H]3C[C@@](C)(O)C3)c2nn1` [Example 74, 3-[4-(difluoromethoxy)-2-hydroxy-6-methylphenyl]-7-[(1s,3s)-3-hydroxy-3-methylcyclobutyl]-7H-pyrrolo[2,3-c]pyridazine-5-carbonitrile] stands 26.1 nM; under `CCN1CCC[C@@H](n2cc(C)c3cc(-c4c(C)cc(C(F)(F)F)cc4O)nnc32)C1` [Example 20, 2-{7-[(3R)-1-ethylpiperidin-3-yl]-5-methyl-7H-pyrrolo[2,3-c]pyridazin-3-yl}-3-methyl-5-(trifluoromethyl)phenol], 8.19 nM; under `Cc1cc(C(F)(F)F)cc(O)c1-c1cc2c(C#N)cn(C34CCCC(O)(C3)C4)c2nn1` [Example 16, 7-(5-hydroxybicyclo[3.1.1]heptan-1-yl)-3-[2-hydroxy-6-methyl-4-(trifluoromethyl)phenyl]-7H-pyrrolo[2,3-c]pyridazine-5-carbonitrile], 8.6 nM. In turn, `Cc1cc(C#N)cc(O)c1-c1cc2c(C)cn([C@H]3C[C@@](C)(O)C3)c2nn1` [Example 52, 3-hydroxy-4-{7-[(1s,3s)-3-hydroxy-3-methylcyclobutyl]-5-methyl-7H-pyrrolo[2,3-c]pyridazin-3-yl}-5-methylbenzonitrile] came in with an IC50 of 39.1 nM. With `Cc1cc(C(F)(F)F)cc(O)c1-c1ccc(CC2CCCN(C)C2)nn1` (racemic) [Example 93, 3-methyl-2-{6-[(1-methylpiperidin-3-yl)methyl]pyridazin-3-yl}-5-(trifluoromethyl)phenol] the figure was 30.1 nM.
